This is an account of results in PubChem BioAssay AID1549 (Sanford-Burnham Center for Chemical Genomics, 2009).

For orientation: Kd means the constant that tells how readily two partners part at equilibrium.

Each structure is given as a SMILES string. The source made the active and inactive calls. No rule for the calls is given here. A value given as a limit tells only on which side of the number the result lay.

The assay concerns the target Influenza A virus M2 proton channel (A/TW/4845/1999 H1N1). The assay can be described thus: NMR binding screen, influenza A virus M2 proton channel, Kd (AID 1549). The settings on record: M2 protein.
Consider `N#CCSc1nc2ccccc2c(=O)n1-c1ccccc1`, for which the Kd is > 4 mM (inactive).
As for `CCCCCCCCCCCCCc1ccco1`, the figure is > 4 mM (inactive).
As for `COc1ccc(-c2cc(=O)c3c(OC)c(OC)c(OC)c(OC)c3o2)cc1`, the figure is > 4 mM (inactive); as for `COc1cc(O)c(C(=O)c2ccccc2)cc1O`, > 4 mM (inactive).
Regarding `CCC(C)C(=O)c1c(O)c(C)c2oc3c(C)c(O)c(C(=O)C(C)CC)c(O)c3c2c1O` (centres undefined), the Kd is > 4 mM (inactive).
Then `CSc1nsc(SCc2cnc(C)nc2N)n1`, with > 4 mM (inactive); and `COc1cccc(NC(=O)c2ocnc2C)c1`, with > 4 mM (inactive).
Then `O=C(O)Cn1cnc2ccccc2c1=O`, with > 4 mM (inactive); and `Cn1c(NCC(=O)O)nc2c1c(=O)[nH]c(=O)n2C`, with > 4 mM (inactive); and `NC12CC3CC(C1)CC(CC(=O)O)(C3)C2`, with > 4 mM (inactive).
Then `Cc1cc(N)n(C2CCOC(C)(C)C2)n1` (centres undefined), with > 4 mM (inactive).
On to `COC(=O)c1cnccc1C(F)(F)F`, for which the Kd is > 4 mM (inactive).
In the case of `CN1CCC[C@H]1c1cccnc1`, the Kd is > 4 mM (inactive).
For the molecule `Oc1ccc(C2SCCS2)cc1`, the Kd was > 4 mM (inactive).
With `CN(C)C(=O)Oc1cccc(-c2nnco2)c1`, the Kd is > 4 mM (inactive).
As for `COc1ccc2[nH]c(O)c(NC(C)=O)c2c1`, the figure is > 4 mM (inactive); as for `C=C1C2CC[C@@]3(C)[C@H](c4ccoc4)OC(=O)C[C@]13O[C@H]1CC(=O)C(C)(C)C(CC(=O)OC)C21C` (some centres undefined), > 4 mM (inactive).
Then `O=C1CSC(=Nc2ccccc2)N1`, with > 4 mM (inactive).
As for `O=C(CC1NC(=O)NC1=O)Nc1ccccc1` (centres undefined), the Kd is > 4 mM (inactive).
As for `Cc1cc(NC(=O)c2cc(C)on2)no1`, the figure is > 4 mM (inactive).
Then `c1ccc(-c2nsc(N3CCNCC3)n2)cc1`, with > 4 mM (inactive); and `Nc1ccccc1C(=O)N1CCOCC1`, with > 4 mM (inactive); and `COc1ccc2c(c1)CCCN2C(N)=O`, with > 4 mM (inactive).
As for `CC(=O)O[C@H]1CC[C@@]2(C)C(CC[C@]3(C)C2C(=O)C=C2C4[C@@H](C)[C@H](C)CC[C@]4(C(=O)O)CC[C@]23C)C1(C)C` (some centres undefined), the figure is > 4 mM (inactive).
Consider `NC(=O)N1CCc2ccccc21`, for which the Kd was > 4 mM (inactive).
As for `NC(=O)c1ccsc1NC(=O)c1ccccc1[N+](=O)[O-]`, the figure is > 4 mM (inactive).
Then `NCc1csc(-c2ccccc2)n1`, with > 4 mM (inactive).
Then `Cc1cc(C)nc(/N=C(/N)N2CCOCC2)n1`, with > 4 mM (inactive).
With `CCn1cnc2sc(C(=O)O)c(C)c2c1=O`, the Kd is > 4 mM (inactive).
Take `N/C(=N/S(=O)(=O)c1cccs1)c1ccccc1`: the Kd was > 4 mM (inactive).
Then `CC(=O)Nc1ccc(C(=O)N2CCOCC2)cc1Cl`, with > 4 mM (inactive); and `CC(C)(C)c1cc(CN)c(C(=O)O)o1`, with > 4 mM (inactive).
Turning to `NC(=O)Cn1nnc(-c2ccc(C(F)(F)F)cc2)n1`, the Kd is > 4 mM (inactive).
With `COc1ccc(/C=C2\NC(=S)N(C)C2=O)cc1O`, the Kd is > 4 mM (inactive).
As for `NC(=O)CN1CC(c2ccccc2)CC1=O` (centres undefined), the figure is > 4 mM (inactive).
Then `CCSc1nnc(-c2ccccc2N)c(=O)[nH]1`, with > 4 mM (inactive); and `O=C(O)CCn1c(=O)oc2ccccc21`, with > 4 mM (inactive).
As to `O=C(O)Cc1noc2ccccc12`, the Kd was > 4 mM (inactive).
`O=C1CCC(=O)N1c1ccc(O)cc1`: the Kd was > 4 mM (inactive).
As for `Cc1cc(C)c(C#N)c(N2CCCC2)n1`, the Kd was > 4 mM (inactive).
For the molecule `COCC(=O)Nc1cc2c3c(c1)CCN3C(=O)CC2`, the Kd is > 4 mM (inactive).
Then `CC(=O)Oc1c2c(c3c(c1CC=C(C)C)O[C@]14C(=C[C@@H]5CC1C(C)(C)OC4(C/C=C(\C)C(=O)O)C5=O)C3=O)OC(C)(CCC=C(C)C)C=C2` (some centres undefined), with > 4 mM (inactive).
Then `Nc1nc(NCc2ccco2)nn1-c1ccccc1`, with > 4 mM (inactive).
Then `O=C1C2CC=C(Cl)CC2C(=O)N1c1ccccc1O` (centres undefined), with > 4 mM (inactive).
On to `Cc1nc2ccccc2c(=O)n1NC(=O)C1CCCCC1`, for which the Kd is > 4 mM (inactive).
Then `C[C@@H]1C(=O)O[C@H]2[C@H]1CC[C@@]1(C)C=CC(=O)[C@@]3(C)O[C@@]213`, with > 4 mM (inactive); and `Cc1noc(C)c1C(=O)N1CCc2ccccc2C1`, with > 4 mM (inactive); and `CN1CCN(C(=O)c2ccccc2C(=O)O)CC1`, with > 4 mM (inactive).
Take `Cc1cc(=O)cc(C)n1-c1ccccc1N`: the Kd is > 4 mM (inactive).
As for `NCCc1nc2ccccc2[nH]1`, the figure is > 4 mM (inactive).
With `CCOc1ccc2ccccc2c1C(=O)N1CCOCC1`, the Kd is > 4 mM (inactive).
Take `CC1=CC(=O)C2C(C)(C)CCC[C@]2(C)[C@@]1(O)CCc1ccoc1` (some centres undefined): the Kd was > 4 mM (inactive).
As for `O=C(O)c1ccc(N2CCCCC2)cc1`, the figure is > 4 mM (inactive); as for `COc1cccc(Oc2ccc(N)cc2)c1`, > 4 mM (inactive); as for `NCc1ccc(-c2ccccn2)s1`, > 4 mM (inactive).
Regarding `NC(=O)C1CCN(CN2C(=O)c3ccccc3C2=O)CC1`, the Kd is > 4 mM (inactive).
Then `NS(=O)(=O)c1ccc2c3c(cccc13)C(=O)N2`, with > 4 mM (inactive); and `O=C(NC1CC1)c1ccccc1[N+](=O)[O-]`, with > 4 mM (inactive); and `NC(=O)Cn1cnc2c(cnn2-c2ccccc2)c1=O`, with > 4 mM (inactive).
With `C[n+]1cccc(C(=O)[O-])c1`, the Kd was > 4 mM (inactive).
Turning to `N=Nc1c(O)[nH]c2ccccc12`, the Kd is > 4 mM (inactive).
Regarding `Clc1ccc2c(N3CCNCC3)ccnc2c1`, the Kd was > 4 mM (inactive).
Then `Cc1ccc(NC(=O)c2ccccc2)s1`, with > 4 mM (inactive); and `O=c1c(O)cccc2cc(O)c(O)c(O)c12`, with > 4 mM (inactive).
Take `NC(=O)c1cc(Cl)c(C(N)=O)cc1Cl`: the Kd is > 4 mM (inactive).
Then `CN1C(=O)c2ccc(C(=O)NCc3ccccc3)cc2C1=O`, with > 4 mM (inactive); and `Nc1cc(C(=O)N2CCCC2)cc(C(=O)N2CCCC2)c1`, with > 4 mM (inactive).
As for `COc1nc(-c2ccccc2)ccc1-c1noc(C)n1`, the figure is > 4 mM (inactive); as for `COc1ccc2c(C)cc(=O)oc2c1`, > 4 mM (inactive).
As for `NCCCCNCCCN`, the figure is > 4 mM (inactive).
Take `CCOC(=O)C1=C(C)N2CCN=C2S1`: the Kd is > 4 mM (inactive).
As for `Cc1nc(-c2cc(CO)no2)cs1`, the figure is > 4 mM (inactive); as for `O=c1[nH]cc(N=Cc2ccc(F)cc2)c(=O)[nH]1`, > 4 mM (inactive); as for `CS(=O)(=O)N1CCN(C(=O)c2ccccc2F)CC1`, > 4 mM (inactive).
In the case of `CN1CCC=C(C(=O)O)C1`, the Kd is > 4 mM (inactive).
Then `Nc1ccc(S(=O)(=O)N2CCOCC2)cc1`, with > 4 mM (inactive); and `COc1ccc(C2(C)NC(=O)NC2=O)cc1` (centres undefined), with > 4 mM (inactive).
Then `CNc1nc(C)nc(-n2nc(C)cc2C)n1`, with > 4 mM (inactive); and `Cc1nn(C)c2sc(C(=O)O)cc12`, with > 4 mM (inactive); and `COC[C@]12CN(C=O)C3[C@@H]4[C@H](OC)C1[C@]3(C1CC3(O)C(OC)C(O)C4(OC(C)=O)C1C3OC(=O)c1ccccc1)[C@@H](OC)C[C@H]2O` (some centres undefined), with > 4 mM (inactive).
For the molecule `COc1ccc(/C=N/n2cn[nH]c2=S)cc1`, the Kd is > 4 mM (inactive).
Then `Nc1nc(-c2ccccc2)cc(=O)[nH]1`, with > 4 mM (inactive).
`O=C(O)CCC(=O)Nc1ccccc1F`: the Kd was > 4 mM (inactive).
Then `O=C(/C=C/c1ccccc1)c1ccc(O[C@@H]2O[C@H](CO)[C@@H](O)[C@H](O)[C@H]2O)cc1O`, with > 4 mM (inactive); and `Cc1nn(C)c(N2CCOCC2)c1N`, with > 4 mM (inactive).
As to `Cc1sc2nc(SC3CCOC3=O)[nH]c(=O)c2c1C` (centres undefined), the Kd was > 4 mM (inactive).
As for `Nc1nc2ccc(S(N)(=O)=O)cc2s1`, the figure is > 4 mM (inactive).
As for `CC1(C)Cc2nc(N3CCOCC3)c(C#N)cc2CO1`, the figure is > 4 mM (inactive).
On to `COc1cc(NC(=O)c2ccccc2)c(C)cc1N`, for which the Kd is > 4 mM (inactive).
As for `c1ccc2[nH]c(CCn3cncn3)nc2c1`, the figure is > 4 mM (inactive); as for `Cc1cc(C)nc(NC(N)=NCc2ccco2)n1`, > 4 mM (inactive).
As for `O=S(=O)(CCN1CCCC1)c1ccccc1`, the figure is > 4 mM (inactive).
On to `Nc1cc(=O)[nH]c(=S)n1-c1cccc(C(F)(F)F)c1`, for which the Kd is > 4 mM (inactive).
Turning to `COc1c(-c2ccccc2)oc2c(OC)cccc2c1=O`, the Kd is > 4 mM (inactive).
With `NC(=O)CSc1nnc2ccc(-c3ccccn3)nn12`, the Kd is > 4 mM (inactive).
Then `CC(=O)OCc1cc(=O)n(C)c(=O)n1C`, with > 4 mM (inactive).
As for `COc1ccc(CN2CCNC(=O)C2CC(=O)O)cc1C` (centres undefined), the figure is > 4 mM (inactive); as for `Clc1ccccc1OCc1nc(-c2ccncc2)no1`, > 4 mM (inactive).
As for `O=C1NNC(=O)C2C3c4ccccc4C(c4ccccc43)C12` (centres undefined), the Kd was > 4 mM (inactive).
As for `O=C(NCc1ccccn1)c1ccccc1Cl`, the figure is > 4 mM (inactive); as for `Cc1cc(C)n2nc(SCC(=O)c3ccccc3)nc2n1`, > 4 mM (inactive); as for `O=c1n(-c2cccc(Cl)c2)c(=O)n2n1CCC2`, > 4 mM (inactive).
Take `CC(=O)NC1(NC(C)=O)CCN(C)CC1`: the Kd is > 4 mM (inactive).
`Cc1ccccc1-n1c(N)cc(=O)[nH]c1=S`: the Kd is > 4 mM (inactive).
